Data set [1] concerns the target rat nNOS (Rattus norvegicus (Rat), UniProt P29476). In words: In vitro purified enzyme assay (hemoglobin capture), nNOS. Format: biochemical. Particulars: for Ki: calculated from directly measured IC50 (Cheng-Prusoff), rat nNOS; for IC50: purified enzyme assay. The protocol: (§1) The three NOS isoforms, rat nNOS, murine iNOS and bovine eNOS were recombinant enzymes overexpressed in E. coli and purified as reported in the literature. (See, e.g., example 51 of the aforementioned incorporated '790 patent and the references cited therein.) The hemoglobin capture was used to measure nitric oxide production. (See, Hevel, J. M. and Marietta, M. A. Nitric Oxide Synthase Assays. Methods Enzymol. 1994, 133, 250-258.) Briefly, the assay was run at 37° C. in 100 mM HEPES buffer (10% glycerol; pH 7.4) in the presence of 10 μM L-arginine. The following NOS cofactors were also included in the assay: 100 μM NADPH, 10 μM tetrahydrobiopterin, 1 mM CaCl2, 11.6 μg/mL calmodulin and 3.0 μM oxyhemoglobin. For iNOS, calmodulin and CaCl2 were omitted. The assay was run in a high throughput manner, using the Synergry 4 by BioTek, at the Northwestern University HighThroughput Analysis Facility. The assay was run in triplicate; 48 100 uL reactions were ran at once in a 96 well plate. The addition of hemoglobin and NOS were automated with a maximum of a 30 second delay before the reactions could be recorded at 401 nm. The absorbance increase at 401 nm is due to the formation of NO via the conversion of oxyhemoglobin to methemoglobin.
(§2) The IC50 values were obtained using non-linear regression in GraphPad Prism5 software.

The target of data set [2] is bovine eNOS (Bos taurus (Bovine), UniProt P29473). Description: In vitro purified enzyme assay (hemoglobin capture), eNOS. Format: biochemical. Conditions: for Ki: calculated from directly measured IC50 (Cheng-Prusoff), bovine eNOS; for selectivity n/e: ratio of Ki (eNOS) to Ki (nNOS). The method, then:
as §1, §2

For data set [3], the target named is murine iNOS (Mus musculus (Mouse), UniProt P29477). In words: In vitro purified enzyme assay (hemoglobin capture), iNOS. Conditions: for Ki: calculated from directly measured IC50 (Cheng-Prusoff), murine iNOS; for selectivity n/i: ratio of Ki (iNOS) to Ki (nNOS). Format: biochemical. The protocol: as §1, §2
Data set [4] has as its target HEK293t cells stably transfected with rat nNOS (Rattus norvegicus (Rat), UniProt P29476). Description: nNOS cell-based assay (nitrite production, Griess reagent). Particulars: for Relationship (fold higher in cells): cell-based IC50 versus in vitro IC50; for IC50: inhibition of nitric oxide production in HEK293t cells stably expressing nNOS. The protocol:
HEK293t cells stably transfected with rat nNOS were cultured as previously described, and the nNOS inhibition assay was performed as previously reported (Fang, J.; Silverman, R. B. A cellular model for screening neuronal nitric oxide synthase inhibitors. Analytical Biochemistry 2009, 390, 74-78), with the following modifications: assays were performed in 96-well plates with a total volume of 100 μL, and 10 μM A23187 (Sigma Aldrich, St Louis, Mo., USA) in 50% DMSO was used in place of 5 μM. Nine concentrations of each inhibitor were tested, in at least triplicate wells. All inhibitors were assayed within the same experiment to assure consistencies in cell concentration and passage number. The entire assay was repeated at least twice for each inhibitor, and the IC50 values averaged. After 6 hours of activation (in the presence or absence of inhibitor, which was added 30 minutes before activation) 50 μL aliquots of the media were removed and nitrite production was quantified using Griess reagent. (See, Hevel, J. M.; White, K. A.; Marietta, M. Purification of the inducible murine macrophage nitric oxide synthase. Identification as a flavoprotein. J. Biol. Chem. 1991, 266, 22789-22791.)
(In general: Griess reagent forms a coloured azo dye with nitrite.)

The conditions of data set [5]: animal test results; cited from earlier work.
The conditions of data set [6]: cited from earlier work.

What is called Ki is a measure of affinity in units of concentration, obtained from inhibition or displacement. By IC50 is commonly meant the concentration that gives 50% inhibition. The pKa is the negative logarithm of the acid dissociation constant.

Regarding `Cc1cc(N)nc(C[C@H]2CNC[C@H]2OCCNCc2ccccc2F)c1` [Compound 3a, 6-(((3S,4S)-4-(2-(2-Fluorobenzylamino)ethoxy)pyrrolidin-3-yl)methyl)-4-methylpyridin-2-amine], in data set [1], the Ki was 0.41 µM and the IC50 is 3.6 µM. Further, in data set [2], the inhibitory constant (Ki) is 40 µM and the selectivity n/e turned out to be 98. In data set [3], the Ki was 44 µM and the selectivity n/i is reported as 105. In data set [4], the “Relationship (fold higher in cells)” value was determined as 33 x and the IC50 turned out to be 120 µM.

On to `Cc1cc(C[C@H]2CN(C(=O)OC(C)(C)C)C[C@H]2OCC=O)nc(N(C(=O)OC(C)(C)C)C(=O)OC(C)(C)C)c1` [Compound 2, reference compound], for which the IC50 in data set [1] stood at 1 µM. For the same molecule, in data set [4], the “Relationship (fold higher in cells)” value was 125 x and the IC50 was found to be 125 µM. Also, the BBB penetration result in data set [5] was “do not penetrate the BBB”.

With `Cc1cc(N)nc(C[C@H]2CNC[C@H]2OCCNCc2ccco2)c1` [Compound 3d, 6-(((3S,4S)-4-(2-(Furan-2-ylmethylamino)ethoxy)pyrrolidin-3-yl)methyl)-4-methylpyridin-2-amine], in data set [1], the inhibition constant (Ki) was 0.4 µM and the IC50 was 3.4 µM. For the same molecule, in data set [2], the Ki is 66 µM and the selectivity n/e was found to be 169. Besides, in data set [3], the inhibition constant Ki was 36 µM and the selectivity n/i is on record as 92. Besides, in data set [4], the “Relationship (fold higher in cells)” value is given as 123 x and the concentration for half-maximal inhibition (IC50) was found to be 420 µM.

With `CNc1cc(N)nc(NC)c1.Cl` [Aminopyridine, 2-amino-4,6-dimethylaminopyridine hydrochloride, reference compound], in data set [1], the IC50 came to 0.05 µM. The “Relationship (fold higher in cells)” value in data set [4] turned out to be 500x. Also, the pKa in data set [6] was roughly 7.

`COc1ccccc1CNCCO[C@@H]1CNC[C@@H]1Cc1cc(C)cc(N)n1` [Compound 3b, 6-(((3S,4S)-4-(2-(2-Methoxybenzylamino)ethoxy)pyrrolidin-3-yl)methyl)-4-methylpyridin-2-amine]: in data set [1], the Ki was 0.82 µM and the IC50 was 7.1 µM. In addition, in data set [2], the Ki is 77 µM and the selectivity n/e worked out at 93. For the same molecule, in data set [3], the Ki was 114 µM and the selectivity n/i came to 139. In data set [4], the “Relationship (fold higher in cells)” value is 27 x and the midpoint of inhibition, the IC50, lay at 190 µM.

Turning to `C=CCO[C@@H]1CN(C(=O)OC(C)(C)C)C[C@@H]1Cc1cc(C)cc(N(C(=O)OC(C)(C)C)C(=O)OC(C)(C)C)n1` [Compound 1, reference compound], the concentration for half-maximal inhibition (IC50) in data set [1] worked out at 0.45 µM. Further, in data set [4], the “Relationship (fold higher in cells)” value was 722 x and half-maximal inhibition (IC50) required 325 µM. Further, the BBB penetration entry in data set [5] is “do not penetrate the BBB”.

Regarding `Cc1cc(N)nc(C[C@H]2CNC[C@H]2OCCNCc2ccccc2O)c1` [Compound 3c, 2-((2-((3S,4S)-4-((6-Amino-4-methylpyridin-2-yl)methyl)pyrrolidin-3-yloxy)ethylamino)methyl)phenol], in data set [1], the inhibitory constant (Ki) is 0.39 µM and the half-maximal inhibitory concentration (IC50) stood at 3.5 µM. Further, in data set [2], the Ki is 37 µM and the selectivity n/e is given as 93. For the same molecule, in data set [3], the inhibitory constant (Ki) is 57 µM and the selectivity n/i is given as 143. Besides, in data set [4], the “Relationship (fold higher in cells)” value is 150 x and the IC50 amounted to 520 µM.

The values above are taken from patent US8927730B2, “Intramolecular hydrogen-bonded nitric oxide synthase inhibitors” (Northwestern University, priority 2010, dated 2015).
